In ChEMBL document CHEMBL6127108, “Triantaspirols A-C and Paraphaeolactone Cs from Paraphaeosphaeria sp. KT4192: Sensitivity of CP3 in Distinguishing Close NMR Signals” (J Nat Prod, 2024):
Activity calls are given as the source filed them. No cut-off for these calls is given here.

Tested on: COLO 201
Assay: Cytotoxicity against human COLO201 cells assessed as inhibition of cell growth incubated for 24 hrs by WST-1 assay
Type: functional, cell-based
Conditions: for IC50: COLO 201, 24 h

| SMILES | IC50 [µM] | Activity |
| --- | --- | --- |
| CC[C@@]1(O)C(=O)OCc2c1cc1n(c2=O)Cc2cc3ccccc3nc2-1 [CAMPTOTHECIN] | 34 | – |
| C[C@@H]1C=C[C@@]2(O)[C@@H]3OC(=O)[C@@](O)([C@H]13)[C@@H]2Oc1ccc(O)c2c1C(=O)CCC21Oc2cccc3cccc(c23)O1 | – | inactive |
| Cc1ccc(O)c2c1C(=O)[C@](C)(Oc1ccc(O)c3c1[C@@H](O)CCC31Oc3cccc4cccc(c34)O1)O2 | 23 | – |
| Cc1ccc(O)c2c1C(=O)[C@@](C)(Oc1ccc(O)c3c1[C@@H](O)CCC31Oc3cccc4cccc(c34)O1)O2 | 17 | – |
| Oc1ccc(O)c2c1[C@@H](O)CCC21Oc2cccc3cccc(c23)O1 | – | inactive |
